Like-named read-outs stand apart in the source and are kept apart here.
How the values were obtained:
Weight loss assay = format: in vivo, Male Sprague Dawley rats; conditions: 12 mM in vehicle, 400 μl per 100 grams body weight, subcutaneous, nuchal area, 8 days
Procedure: Male Sprague Dawley rats (approximately 200 g) were purchased from Charles River Canada, Inc. and were shipped to the Animal Care Facility at the University of Vermont. Upon arrival they were housed in separate cages with corncob bedding and ad lib access to tap water and purina rat chow. The animal facility is maintained at a temperature of 71° F. +/− 1° F. with a 12-hour light/dark cycle, lights on at 6:00 am and off at 6:00 pm. Two days later (Day-3) all rats were shaved in the nuchal area and baseline color photographs of the nuchal area were taken (light halothane anesthesia was utilized to facilitate the shaving). Three days later (Day 0) experimental compounds were made up at 12 mM concentrations in vehicle (i.e., saline:PEG400:EtOH (5:4:1), pH 7.4). Animals were injected subcutaneously in the nuchal area with the various stock solutions at a dose of 400 μl per 100 grams body weight. Typical injection volumes, therefore, range from 1 to 1.5 ml per animal. Animals were injected using a modified Z-track technique to try and minimize outflow of injected compounds due to the high volume utilized. Each animal was weighed prior to injection and all injections were accomplished in an approximately two-hour period. No anesthesia was utilized for injections.
Animals subsequently underwent daily weighing with a Mettler 6 second integrating balance and had ad lib access to tap water and purina rat chow. At various intervals after injections, the nuchal area of rats was again photographed. […] The scale used was 0 for no lesions, 5 for the worst lesions with breakdown of the skin and open flow of exudates. Grades in-between were estimated by the operator based on the size and severity of the lesion. […] After 8 days, final photographs were taken and all animals were euthanized, marking the end of the experiment.
Means of body weights for each group were calculated and plotted over time (FIG. 9A), as were numerical means of the lesion severity index (FIG. 9B). In FIGS. 9A and 9B, C=noninjected control, V=vehicle injected control, A=Co-MP, E=Cpd. No. (1-6) and F=Cpd. No. (4-4). […] Cpd.

[1] = high doses; cited from earlier work
[2] = cited from earlier work
reduced cytochrome c = reduced cytochrome c (Homo sapiens, UniProt P99999); assay: Oxidation of reduced cytochrome c by Co-PP; format: biochemical; conditions: reduced cytochrome c 5.3, 10.5, 26 μM; 0-100 μM CoPP; absorbance at 550 nm
Procedure: Reduced cytochrome c was prepared by the addition of an excess of ascorbic acid to a solution of cytochrome c and allowing the solution to stand for 5 to 10 minutes. The reduced protein was purified over a Sephadex G50 column and checked spectrophotometrically by measuring absorbance at 550 nm, followed by the addition of a few grains of dithionite and measuring absorbance again at 550 nm. […] Initial rates of oxidation of reduced cytochrome c at three concentrations (5.3 μM, 10.5 μM and 26 μM) were followed in the presence of 0, 5,10, 20 and 100 μM CoPP. Assays were conducted in 1 ml of assay buffer (20 mM potassium phosphate, pH 7.0, 0.2 mg/ml dodecyl-β-maltoside) and initiated by the addition of desired concentration of reduced cytochrome c and monitoring the change in absorbance at 550 nm for 90 seconds. The fully oxidized absorbance value was determined by the addition of a few grains of ferricyanide to the cuvette. […] In a biological system, Co-PP can transfer electrons from an electron rich donor/reductant to molecular oxygen, O2, to generate reactive oxygen species, the production of which can be toxic to cells and give rise to undesirable side effects (e.g. oxidative stress).

[3] = test system: SH-SY5Y neuroblastoma cells; assay: Cellular assay for generation of reactive oxygen species (ROS); format: cell-based; conditions: for generation of reactive oxygen species (DCFC-DA fluorescence): 30 minutes with test compound
Procedure: All cell culture reagents were incubated in a water bath at 37° C. for approximately 30 minutes. Existing media from a near confluent tissue culture flask containing SH-SY5Y neuroblastoma cells was aspirated using a flame sterilized glass transfer pipette attached to a trapped vacuum apparatus. Calcium free PBS buffer was pipetted into the tissue culture flask (2 ml for a 75 cm2 flask, 3 ml for a 175 cm^2 flask). The flask was tipped slightly to ensure that the buffer covers the cell culture and then the buffer was removed by aspiration. Trypsin media was pipetted into the tissue culture flask (2 ml for a 75 cm^2 flask, 3 ml for a 175 cm^2 flask) and evenly spread to ensure that the trypsin covered the cell culture. The cell culture was incubated with trypsin media for 4-6 minutes at room temperature. After cells were released from the flask, the flask was tilted to one corner. Using the existing media within the flask, the aggregated cells were collected towards one corner and repeatedly pipetted to obtain a single cell suspension. The cell suspension was transferred with a pipette into a 15 ml conical shaped centrifuge tube then cell culture media was added to the suspension up to a total volume of 14 ml. Ten μl aliquots were withdrawn and the cells were counted using a hemocytometer. The suspension was centrifuged at 200×g for 10 minutes, the supernatant was aspirated off, and the cell pellet was resuspended at 3.75×10^5 cells/ml in cell culture medium. Two hundred μl of cell suspension were aliquoted per well in the 96 well dish to obtain a final cell number of 75,000 cells per well. The plates were incubated overnight at 37° C. and 5% CO2 in a humidified cell incubator.
The medium was carefully removed from the wells by aspiration with an 18 g needle. The wells were gently rinsed once with 200 μl of warm Hanks balanced saline solution (HBSS, Gibco-BRL). […]
Stock solutions of test compound, such as Co-PP, Co-MP, or a Co-P of this invention, and of an H2O2 scavenger such as ebselen, were typically prepared in dimethylformamide or dimethylsulfoxide and diluted further into working concentrations using HBSS. […] The plate was read immediately in Cytofluor model 2350 system (Millipore; excitation wavelength: 485 nm; emission wavelength: 530 nm) for a 0 min timepoint reading. The cells were incubated for 30 minutes at room temperature with test compound following which a 30 min reading was taken. The change in RMF over the 30 minutes period was calculated for each well. […] The plate was then read in the Cytofluor (excitation wavelength: 360 nm; emission wavelength: 460 nm) and the Hoechst fluorescence values were used to normalize the DCFC-DA RMF data.

[4] = Oxygen consumption catalyzed by Co-P in the presence of ascorbate/TMPD (Clark oxygen electrode); conditions: 2 mM ascorbate, 40 μM TMPD; for Relative Rate (oxygen consumption), effect of ligand, R5 and A moiety: Table 3; for O2 consumption / redox cycling (in words): cell free ascorbate/TMPD system; for Relative Rate (oxygen consumption), effect of ligand, R5, A and n moiety: Table 4
Procedure: (Co-MP). Such activity can be readily determined by, for example, the assay disclosed in Example 16. In that assay, redox activity is measured by oxygen consumption catalyzed by a Co-P test compound in the presence of ascorbate and TMPD.
Ten mM stock solutions of a Co-P of this invention (i.e., test compound) were prepared using ethanol as solvent. KCl media consists of 125 mM KCl, 2 mM K2HPO4, 20 mM HEPES, pH 7.0. Oxygen consumption measurements were carried out using a Clark type oxygen electrode (Rank Brothers Ltd., Cambridge, UK) and assay solutions were magnetically stirred during the course of the experiments. To 500 μl of assay solution (KCl media supplemented with 2 mM sodium ascorbate and 40 μM […] (TMPD)) is added 2 μl of a stock solution of test compound (40 μM final concentration) and the oxygen consumption rate is followed for 2-4 min. Subsequently, a 5 μl aliquot of a freshly made catalase solution (100 mg/ml solution in KCl media) is added to determine if H2O2 is generated via redox cycling of the test compound.
Initial rates are calculated from oxygen consumption slopes and rate of a solvent control is subtracted. […] An aliquot of a 10 mM stock solution of Co-MP (final concentration of 40 μM) was added to assay buffer containing 2 mM of ascorbate and 40 μM of TMPD. […] Addition of catalase results in conversion of H2O2 present in the assay solution to O2 and H2O.
Stock solutions of the test compound were at 10 mM. Aliquots of the stock solutions were added to 500 μl of assay buffer containing 2 mM of ascorbate and 40 μM of TMPD.
Representative Co-P compounds of this invention were prepared by the procedures disclosed above, and assayed by the procedure of Example 16 to measure oxygen consumption catalyzed by the test compound in the presence of ascorbate/TMPD. […] The above procedure was then repeated for other representative Co-P compounds of this invention, but utilizing different ligands and/or R groups.

[5] = subcutaneous administration, Zucker rats fa/fa; cited from earlier work
[6] = 40 μM test compound, normalized to chloride salt of Co-MP = 1

reduced cytochrome c, sequence (P99999 whole entry): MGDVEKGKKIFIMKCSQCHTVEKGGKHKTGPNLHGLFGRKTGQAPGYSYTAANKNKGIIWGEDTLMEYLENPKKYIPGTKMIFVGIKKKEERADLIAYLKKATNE

With `CCC1=C(C)c2cc3[n-]c(cc4nc(cc5[n-]c(cc1n2)c(C)c5CCC(=O)NC(C)C)C(CCC(=O)NC(C)C)=C4C)c(C)c3CC.NCC(=O)O.NCC(=O)[O-].[Co+3]` [(4-4), Cobalt (III) mesoporphvrin IX bisglycinate, di—(N-isopropyl)amide] as the compound, how does the body weight response (Weight loss assay) read?
Its body weight response is “favorable body weight responses”.

For `C=CC1=C(C)c2cc3[n-]c(cc4nc(cc5[n-]c(cc1n2)c(C)c5CCC(=O)[O-])C(CCC(=O)[O-])=C4C)c(C)c3C=C.[Co+2].[H+].[H+]` [Co-PP, Cobalt protoporphyrin], which heme oxygenase induction [1] is on record?
Its heme oxygenase induction is “induction of heme oxygenase”.

And the oxidative stress [1]?
The oxidative stress was “oxidative stress has been associated with administration of high doses”.

What about the body weight ([2]; single subcutaneous injection) of the same compound?
Its body weight is “sustained decrease in body weight”.

And the carcass composition ([2]; single subcutaneous injection)?
The carcass composition was “decreases in carcass fat content without changes in protein content”.

And the food intake ([2]; single subcutaneous injection)?
The food intake was “prompt dose-dependent decrease in food intake”.

And the “food intake and body weight effect” value ([2]; smaller doses, intracerebroventricular administration)?
The value was “elicit the same effect”.

And the “oxidation of reduced cytochrome c” value (reduced cytochrome c)?
The value was “serves as an electron acceptor from reduced cytochrome c”.

And the “generation of reactive oxygen species (DCFC-DA fluorescence)” value [3]?
Its value is “reactive oxygen species were induced”.

And the “Relative Rate (oxygen consumption), effect of ligand, R5 and A moiety” value (“Relative Rate … R5 and A moiety” for short) [4, 6]?
Its value is 2.2.

What about the body weight [5] of the same compound?
Its body weight is “long-sustained reduction in body weight”.

Which “scavenging of reactive oxygen species induced by Co-PP and Co-MP” value [3] does the source give for `O=c1c2ccccc2[se]n1-c1ccccc1` [ebelsen, ebselen] here?
Its value is “scavanges the reactive oxygen species”.

With `c1c[nH]cn1` [imidazole] as the compound, how does the “O2 consumption / redox cycling (in words)” value [4] read?
Its value is “blocks generation of reactive oxygen species”.

With Cobalt (III) Mesioirogyrin IX [(11-1)] as the compound, how does the “Relative Rate (oxygen consumption), effect of ligand, R5, A and n moiety” value (“Relative Rate … A and n moiety” for short) [4, 6] read?
The value was 0.0005.

Which “Relative Rate … A and n moiety” value [4, 6] does the source give for “Cobalt (III) Mesoporphyrin IX Diacetate [(7-1)]” here?
Its value is 0.07.

Which “Relative Rate … A and n moiety” value [4, 6] does the source give for “Cobalt (III) Mesoporphyrin IX Dibenzyl Ester [(8-1)]” here?
Its value is 0.045.

For “Cobalt (III) Mesoporphyrin IX Dimethyl Ester [(5-1)]”, which “Relative Rate (oxygen consumption), effect of ligand and R5 moiety” value ([4]; Table 2, 40 μM test compound, normalized to chloride salt of Co-MP = 1) is on record?
The value was 0.05-0.07.

For “Cobalt (III) Mesoporphyrin IX Diol [(6-1)]”, which “Relative Rate … A and n moiety” value [4, 6] is on record?
Its value is 0.56.

Which “Relative Rate … A and n moiety” value [4, 6] does the source give for “Cobalt (III) Mesoporphyrin IX Dithiobenzyl Ether [(10-1)]” here?
The value was 0.021.

For “Cobalt (III) Mesoporphyrin IX bisglycinate monosodium salt dibutyl ester [(1-2)]”, which “Relative Rate … R5 and A moiety” value [4, 6] is on record?
Its value is “(not detected)”.

With “Cobalt (III) Mesoporphyrin IX bisglycinate monosodium salt diisopropyl ester [(1-6)]” as the compound, how does the body weight response (Weight loss assay) read?
Its body weight response is “favorable body weight responses”.

What about the “Relative Rate … R5 and A moiety” value [4, 6] of the same compound?
The value was “(not detected)”.

Which “Relative Rate … R5 and A moiety” value [4, 6] does the source give for “Cobalt (III) Mesoporphyrin IX bisglycinate monosodium salt, diethyl ester [(1-5)]” here?
The value was 0.08 ± 0.01.

Which “Relative Rate … R5 and A moiety” value [4, 6] does the source give for “Cobalt (III) Mesoporphyrin IX bisglycinate monosodium salt, diisoamyl ester [(1-4)]” here?
Its value is “(not detected)”.

With “Cobalt (III) Mesoporphyrin IX bisglycinate monosodium salt, diisobutyl ester [(1-3)]” as the compound, how does the “Relative Rate … R5 and A moiety” value [4, 6] read?
Its value is “(not detected)”.

For “Cobalt (III) Mesoporphyrin IX bisglycinate monosodium salt, dimethyl ester [(1-1)]”, which “Relative Rate … R5 and A moiety” value [4, 6] is on record?
Its value is 0.21 ± 0.04.

For “Cobalt (III) mesoporphyrin IX bisimidazole, di(4-methoxybenzyl) amide [(4-2)]”, which “generation of reactive oxygen species (DCFC-DA fluorescence)” value [3] is on record?
Its value is “does not trigger generation of reactive oxygen species”.

What about the “Relative Rate … R5 and A moiety” value [4, 6] of the same compound?
The value was “(not detected)”.

What about the “O2 consumption / redox cycling (in words)” value [4] of the same compound?
Its value is “does not result in any O2 consumption”.

— patent publication US20020165216A1, “Cobalt-porphyrin complexes and use thereof as an anti-obesity agent” (MitoKor, priority 2000, published 2002)
